# According to patent US7241878B1, “Modified cellulose synthase gene from Arabidopsis thaliana confers herbicide resistance to plants” (U.S. Department of Energy, priority 1999, dated 2007):
# How the values were obtained:
# [1] = system: cellulose synthesis in algae and plants; conditions: cited from earlier work
# [2] = system: wild type Arabidopsis; conditions: 12 μM; cited from earlier work
# [3] = system: ixr1-1 mutant; conditions: 12 μM; cited from earlier work
# [4] = system: ixr1-1-, ixr1-2- and wild-type Arabidopsis plants; experiment: isoxaben-resistance pilot screen, spraying of soil-grown plants; type: in vivo, Arabidopsis thaliana; conditions: sprayed every 3 days from seedling stage, 1 ml/6 cm^2 soil surface, 0.025% DMSO
# Procedure: Seeds from homozygous isoxaben-resistant mutants ixr1-1 (DH47) and ixr1-2 (DH48) (Heim et al., 1989) were obtained from the Arabidopsis Biological Resource Center, Columbus, Ohio (ABRC stock numbers CS 6201 and CS 6202). Seeds were vernalized for five days in 0.15% water agar at 6° C. prior to planting in a commercial peat-vermiculite-perlite mix (ProMix HP with a 1 cm top-layer of ProMix PGX, Premier Horticulture Inc., Red Hill, Pa., Canada). Plants were grown in the greenhouses of Carnegie Institution of Washington, Department of Plant Biology, Stanford, Calif. between July 1998 and June 1999. Seeds from self-pollinated ixr1-1 and ixr1-2 mutants were collected separately and used for further experiments.
# Isoxaben (95%, N-3-[1-ethyl-1-methyl-propyl]-5-isoxazolyl-2, 6-dimethoxybenzamide) was graciously supplied by DowElanco (Indianapolis, Ind.) and was made up as a concentrated dimethylsulfoxide (DMSO) stock solution and used at concentrations ranging from 0.03 to 10.0 μM. The final concentration of DMSO was always 0.025%. Control cultures without isoxaben contained the same amount of DMSO as the isoxaben-treated cultures; no effect of DMSO was noted.
# [5] = system: Brassica napus; conditions: in vivo; read-out: I50 for Brassica napus; cited from earlier work
# [6] = system: cellulose biosynthesis; conditions: compared with dichlobenil, another cellulose synthesis inhibitor; cited from earlier work
# [7] = system: seed germination, mitosis, respiration, photosynthesis, and lipid and RNA synthesis; conditions: cited from earlier work
# [8] = system: wild-type Col and Ler plants; experiment: growth analysis under isoxaben spray, wild-type plants; conditions: 2.0 μM isoxaben in the spray solution
# Procedure: (§1) Seeds from wild-type Col and Ler, ixr1-1 and ixr1-2 homozygous mutants and F1- and F2-seeds were germinated again and treated as described using 2.0 μM isoxaben in the solution.
# [9] = system: ixr1-1 and ixr1-2 mutant plants; experiment: growth analysis under isoxaben spray, ixr1 mutant plants; conditions: 2.0 μM isoxaben
# Procedure: as §1
compound,measurement,setting,value
"N#Cc1c(Cl)cccc1Cl [DCB, 2,6-dichlorobenzonitrile]",inhibition of cellulose synthesis,[1],effective and specific inhibitor
"CC(C)(C)NC(=O)OC1SCN(c2cccc(C(F)(F)F)c2)C1=O (stereo not shown) [TZ, 5-tert-butyl-carbamoyloxy-3-(3-trifluromethyl) phenyl-4-thiazolidnone]",effect on wild type Arabidopsis,[2],kills
same,reduction of growth of the ixr1-1 mutant,[3],50%
"CCC(C)(CC)c1cc(NC(=O)c2c(OC)cccc2OC)on1 [isoxaben, N-3-[1-ethyl-1-methyl-propyl]-5-isoxazolyl-2,6-dimethoxybenzamide]",concentration in the application solution high enough to discriminate resistant and susceptible plants,[4],1.0 to 3.0 µM
same,IC50,[5],20 nM
same,acts at lower concentrations than dichlobenil (factor),[6],< 40 ×
same,effect on other cellular processes,[7],unaffected
same,growth of wild-type plants,[8],didn't grow at all
same,growth of heterozygous mutant F1-plants,"[9]; heterozygous F1, compared to the homozygous mutants",clearly reduced growth
same,growth of homozygous mutants,[9]; homozygous ixr1-1 and ixr1-2 (ixr1-1 grew better than ixr1-2),grew well
